{
  "source": "patent US20220169989A1",
  "about": "“HUMAN CARDIOMYOCYTE SEPARATION REAGENT, CULTURE MEDIUM, SEPARATION METHOD, AND CULTURE METHOD” (FUWAI HOSPITAL CHINESE ACADEMY OF MEDICAL SCIENCES, priority 2019, published 2022)",
  "key": {"human cardiomyocytes [1]": {"test_system": "human cardiomyocytes", "assay": "Culture test: concentrations of (−)-Blebbistatin and para-aminoblebbistatin (Example 2.1)", "format": "cell-based", "method": "10% fetal bovine serum, 100 U/ml penicillin and 100 μg/ml streptomycin were added to M199 medium (purchased from Sigma), and the resulting medium was used as the basal medium. The experiment was divided into 9 groups, i.e. 0, 2.5, 5, 10, or 20 μM (−)-Blebbistatin, or 5 μM, 10 μM, 20 μM, or 50 μM para-aminoblebbistatin was added to the basal medium. The isolated human cardiomyocytes were divided into 9 groups, and the cells using 9 culture media were plated on a 48-well cell culture plate precoated with 200 μg laminin, and placed and cultured in a 37° C. cell incubator (with 5% CO2, and a relative saturated humidity of 95%) for 7 days, and the rates of rod-shaped cardiomyocytes were calculated."}, "human cardiomyocytes [2]": {"test_system": "human cardiomyocytes", "assay": "Effect of coating composition on adherent cardiomyocytes (Example 2.2)", "format": "cell-based", "details": "72 hours; for number of rod-shaped cells: medium with 20 mM BDM", "method": "48-well culture plates were coated with the following reagents: laminin (Gibco, product number: 23017015; 50 μg/ml or 200 μg/ml, incubated overnight in a 37° C. incubator, and air dried), fibronectin (Sigma Aldrich, product number: F0895-2 MG; 5 μg/ml or 50 μg/ml, air dried), poly-L-lysine (Sigma Aldrich, product number: P04832-50 ML; 0.01%, incubated at room temperature for 5 min, air dried), and Matrigel (Corning, product number: 354234; incubated at 37° C. for 30 min). The culture medium used in this experiment was obtained by adding 20 mM BDM, 10% fetal bovine serum, 100 U/ml penicillin and 100 μg/ml streptomycin to M199 medium. The isolated cardiomyocytes were plated on coated 48-well culture plates, cultured for 72 hours (h), and photographed under a microscope. 4 fields of view were taken for each group for calculating the average number of rod-shaped cells, and the result was expressed as the mean±standard deviation."}, "human cardiomyocytes [3]": {"test_system": "human cardiomyocytes", "assay": "Human cardiomyocyte isolation test (calcium-free solution)", "format": "cell-based", "method": "The cardiomyocyte isolation process generally comprises tissue transport and sectioning, calcium-free perfusion, enzyme solution digestion and cell collection. In the process, the calcium-free Tyrode's solution (calcium-free solution) was the main reagent used in the isolation process, for calcium-free perfusion, enzyme solution digestion and cell collection. The test was conducted in this invention by reference to the cardiomyocyte isolation experimental protocol described in Liang Chen, Guang-ran Guo, Man Rao, Kai Chen, Jiang-ping Song and Sheng-shou Hu, “A Modified Method for Isolation of Human Cardiomyocytes to Model Cardiac Diseases.”, Journal of Translational Medicine (2018). Specific steps were as follows:\nAn excised left atrial appendage was immediately placed in an organ preservation solution (manufactured by the University of Wisconsin, USA) (about 4° C.), and quickly transferred it to a 60 mm cell culture dish in a super clean bench, an organ preservation solution (about 4° C.) was added, and the culture dish was placed on an ice box pre-cooled in a refrigerator at −20° C. Scissors were used to remove excess fat and trim it, the tissue was adhered to a specimen stage, and a microtome (Leica VT1200S, Germany) was used to slice the tissue (300 μm) which was then manually cut into pieces in the super clean bench. The cut atrial appendage pieces were divided into three groups, and the tissues were decalcified three times using the calcium-free solution of the present invention. 15-20 ml calcium-free solution was added to an Erlenmeyer flask for calcium-free perfusion for three times. The Erlenmeyer flask was shaken at room temperature, the calcium-free solution was replaced with fresh one after 2 min and 3 min respectively, and the third calcium-free perfusion time is 4 min. After finishing the calcium-free perfusion, the calcium-free solution was discarded and enzyme solution 1 (preheated to 37° C.) formulated from the corresponding calcium-free solution was added respectively. […] The enzyme solution was collected into a 15 ml centrifuge tube, fresh enzyme solution 1 was added to the Erlenmeyer flask, and digestion was still performed in the water bath kettle. The collected enzyme solution was placed in a pre-cooled 4° C. centrifuge (Eppendorf centrifuge 5804R, Germany) for centrifugation (100×g, 1 min), and the supernatant was discarded, followed by observing whether there were cardiomyocytes in the precipitate at the tube bottom, and determining the proportion of rod-shaped cells. The second digestion is the same as the first digestion. When the rate of rod-shaped cardiomyocytes contained in the precipitate is 70% or more, the enzyme solution 1 was replaced with enzyme solution 2 formulated from the calcium-free solution used in the enzyme solution 1, and digestion was continued. This time, cardiomyocytes in the turbid enzyme solution were collected by centrifugation (4° C., 100×g, 1 min) and then resuspending cells in a 3 ml transport solution.\nIn the process, the calcium-free solution was a calcium-free solution comprising 5 μM (−)-Blebbistatin, 10 μM (−)-Blebbistatin, and 20 mM BDM, respectively."}, "[4]": {"details": "water solubility, known property; cited from earlier work"}, "human cardiomyocytes [5]": {"test_system": "human cardiomyocytes", "assay": "In vitro culture of isolated human cardiomyocytes after recalcification", "format": "cell-based", "details": "10 μM in isolation and in M199 + 10% FBS culture; cultured for 6 days; higher than 20 mM BDM group, p<0.05", "method": "In addition, in order to observe whether the cell states were different when the human cardiomyocytes isolated using two calcium-free solutions (20 mM BDM and 10 μM (−)-Blebbistatin) were cultured in vitro, we performed recalcification on the isolated human cardiomyocytes. Specifically, it was difficult for human cardiomyocytes to survive in an environment without calcium ions, and the present invention adopted a 5-step gradient recalcification method to restore the calcium ion concentration of human cardiomyocytes. The concentration gradients of CaCl2 (with a stock concentration of 30 mM) added to the cell collection solution were 0.08 mM (5 min), 0.25 mM (5 min), 0.5 mM (5 min), 1 mM (5 min), and 1.8 mM (15 min) in order. The human cardiomyocytes isolated in the 20 mM BDM group were cultured using M199 medium with addition of 10% fetal bovine serum (FBS) (note: the concentration percentage of fetal bovine serum in the examples and corresponding figures was volume percentage), 100 U/ml penicillin, 100 μg/ml streptomycin and 20 mM BDM. […]"}, "human cardiomyocytes [6]": {"test_system": "human cardiomyocytes", "assay": "Effect of myosin inhibitors BTS and MYK-461 on survival rate (Example 2.5)", "format": "cell-based", "details": "MEM-HEPES-GlutaMAX + 10% FBS, p<0.05", "method": "In order to explore whether there are other myosin ATPase inhibitors besides BDM and (−)-Blebbistatin that can improve the rate of rod-shaped cardiomyocytes, the effects of (−)-Blebbistatin, BTS, and MYK-461 on the activity of cardiomyocytes were compared. For the isolated human cardiomyocytes, MEM-4-hydroxyethyl piperazine ethanesulfonic acid-GlutaMAX medium comprising 10 μM (−)-Blebbistatin, BTS (at concentrations of 5 μM, 10 μM, 20 μM, 30 μM, 40 μM, or 50 μM, respectively), or MYK-461 (at concentrations of 0.5 μM, 1 μM, 2 μM, 5 μM, 10 μM, or 20 μM, respectively) respectively was used, and 10% fetal bovine serum, 100 U/ml penicillin and 100 μg/ml streptomycin were added to the medium."}},
  "data": [
    {"compound": "Cc1ccc2c(c1)C(=O)[C@]1(O)CCN(c3ccc(N)cc3)C1=N2", "note": "[para-aminoblebbistatin]", "values": [
      {"measurement": "viability / survival rate of human cardiomyocytes", "setting": "human cardiomyocytes [1]; 10 μM para-aminoblebbistatin vs 10 μM (−)-Blebbistatin, 7 days", "result": "no statistical difference"},
      {"measurement": "survival rate of cardiomyocytes", "setting": "human cardiomyocytes [1]; 5-50 μM, 7 days", "result": "can significantly improve the survival rate of cardiomyocytes"}
    ]},
    {"compound": "fibronectin", "values": [
      {"measurement": "number of rod-shaped cells", "setting": "human cardiomyocytes [2]; coating 5 μg/ml, 50 μg/ml", "result": "significantly lower than that in the Matrigel group, 50 μg/ml laminin group and 200 μg/ml laminin group"}
    ]},
    {"compound": "CC(=O)C(C)=NO", "note": "[BDM, 2,3-butanedione monoxime]", "values": [
      {"measurement": "rod-shaped cell morphology after isolation (photomicrographs)", "setting": "human cardiomyocytes [3]; 20 mM", "result": "not well maintained"},
      {"measurement": "normalized rod-shaped cell rate", "setting": "human cardiomyocytes [3]; 20 mM in calcium-free solution, reference of the normalization", "result": 1.0}
    ]},
    {"compound": "laminin", "values": [
      {"measurement": "number of rod-shaped cells", "setting": "human cardiomyocytes [2]; coating 200 μg/ml", "result": "highest number of rod-shaped cells"},
      {"measurement": "adherence and growth of cardiomyocytes", "setting": "human cardiomyocytes [2]; coating, laminin 50-200 μg/ml", "result": "can allow cardiomyocytes to adhere and grow"}
    ]},
    {"compound": "Cc1ccc2c(c1)C(=O)[C@]1(O)CCN(c3ccccc3)C1=N2", "note": "[(−)-Blebbistatin]", "values": [
      {"measurement": "solubility", "setting": "[4]", "result": "10.9 ± 0.9", "unit": "µM"},
      {"measurement": "rod-shaped cell morphology after isolation (photomicrographs)", "setting": "human cardiomyocytes [3]; 5 μM and 10 μM", "result": "can maintain the long rod-shaped morphology of human cardiomyocytes"},
      {"measurement": "normalized rod-shaped cell rate", "setting": "human cardiomyocytes [3]; 5 μM and 10 μM in calcium-free solution, 20 mM BDM group normalized to 1.0, p<0.05", "result": "1.2-1.5"},
      {"measurement": "lengths of human cardiomyocytes isolated", "setting": "human cardiomyocytes [3]; 5 μM and 10 μM vs 20 mM BDM group, p<0.05", "result": "remarkably longer than those in the 20 mM BDM group"},
      {"measurement": "rate of rod-shaped cardiomyocytes", "setting": "human cardiomyocytes [5]", "result": "≥ 80", "unit": "%"},
      {"measurement": "state of cardiomyocytes (culture images)", "setting": "human cardiomyocytes [1]; 5 μM and 10 μM vs 0 μM, after 1 day of culture", "result": "remarkably better than in the 0 μM group"},
      {"measurement": "long rod-shaped morphology of cardiomyocytes (culture images)", "setting": "human cardiomyocytes [1]; 10 μM compared with 5 μM, 1 day, more obvious after 7 days", "result": "better maintained the long rod-shaped morphology of cardiomyocytes"},
      {"measurement": "rate of rod-shaped cells", "setting": "human cardiomyocytes [1]; 2.5, 5, 10, 20 μM vs 0 μM, M199 + 10% FBS, 7 days, p<0.001", "result": "remarkably higher than that in the group without (−)-Blebbistatin"}
    ]},
    {"compound": "Cc1ccc(S(=O)(=O)NCc2ccccc2)cc1", "note": "[BTS, N-benzyl-p-toluenesulfonamide]", "values": [
      {"measurement": "percentages of rod-shaped cells", "setting": "human cardiomyocytes [6]; 5-50 μM vs 10 μM (−)-Blebbistatin", "result": "significantly lower than the percentage in the (−)-Blebbistatin group"}
    ]},
    {"compound": "CC(C)n1c(=O)cc(N[C@@H](C)c2ccccc2)[nH]c1=O", "note": "[MYK-461]", "values": [
      {"measurement": "percentages of rod-shaped cells", "setting": "human cardiomyocytes [6]; 0.5-20 μM vs 10 μM (−)-Blebbistatin", "result": "significantly lower than the percentage in the (−)-Blebbistatin group"}
    ]}
  ]
}
